Laboratory results from ChEMBL document CHEMBL3351325, “Synthesis and biological evaluation of hydroxycinnamic acid hydrazide derivatives as inducer of caspase-3” (Eur J Med Chem, 2014).
pIC50: −log10 of the molar value. Active and inactive are the calls of the source. The calls are words filed in the database; no cut-off is given here.

Tests used:
[1] = Antiproliferative activity against human NL20 cells after 24 hrs by MTT assay; assay type: cell-based; details: NL20, 24 h
[2] = Antiproliferative activity against human H1299 cells after 24 hrs by MTT assay; assay type: functional, cell-based; details: NCI-H1299, 24 h
[3] = tested on: MCF7; test: Antiproliferative activity against human MCF7 cells after 24 hrs by MTT assay; assay type: functional, cell-based; details: MCF7, 24 h
[4] = Antiproliferative activity against human H184B5F5/M10 cells after 24 hrs by MTT assay; assay type: functional, cell-based; details: H184B5F5/M10, 24 h
[5] = Cell cycle arrest in human H1299 cells assessed as reduction in G1 phase at 1.5 uM after 12 to 24 hrs by flow cytometry; assay type: functional, cell-based; details: NCI-H1299
[6] = tested on: NCI-H1299; test: Induction of apoptosis in human H1299 cells assessed as change in morphology at 1.5 uM after 24 hrs using Acridine orange/ethidium bromide staining by fluorescence microscopy; assay type: functional, cell-based
[7] = Cell cycle arrest in human H1299 cells assessed as accumulated at G2/M phase at 1.5 uM by flow cytometry; assay type: functional, cell-based; details: NCI-H1299, TDE = time-dependent effect
[8] = Cell cycle arrest in human NL20 cells assessed as accumulation at G2/M phase at 1.5 uM after 12 to 24 hrs by flow cytometry; assay type: ADME, cell-based; details: nl20, 1.5 µM
[9] = tested on: NCI-H1299; test: Induction of apoptosis in human H1299 cells assessed as caspase 3 protein expression after 24 hrs by Western blot analysis; assay type: functional, cell-based
[10] = Cell cycle arrest in human H1299 cells assessed as accumulation at Sub-G1 phase at 1.5 uM after 24 hrs by flow cytometry (reference value: 5.3%); assay type: functional, cell-based; details: NCI-H1299
[11] = Cell cycle arrest in human H1299 cells assessed as accumulated at G2/M phase at 1.5 uM after 24 hrs by flow cytometry (reference value: 5.4%); assay type: functional, cell-based; details: NCI-H1299
[12] = Cell cycle arrest in human H1299 cells assessed as accumulation at Sub-G1 phase at 1.5 uM after 12 hrs by flow cytometry (reference value: 5.3%); assay type: functional, cell-based; details: NCI-H1299
[13] = Cell cycle arrest in human H1299 cells assessed as accumulated at G2/M phase at 1.5 uM after 12 hrs by flow cytometry (reference value: 5.4%); assay type: functional, cell-based; details: NCI-H1299
[14] = Cell cycle arrest in human NL20 cells assessed as accumulation at Sub-G1 phase at 1.5 uM after 24 hrs by flow cytometry (reference value: 4.6 %); assay type: ADME, cell-based; details: nl20, 24 h
[15] = Cell cycle arrest in human NL20 cells assessed as accumulation at Sub-G1 phase at 1.5 uM after 12 hrs by flow cytometry (reference value: 4.6 %); assay type: ADME, cell-based; details: nl20, 12 h

Row | SMILES | pIC50 [1] | pIC50 [2] | pIC50 [3] | pIC50 [4] | further results
1 | COc1ccc(C(=O)NNC(=O)/C=C/c2ccc(O)cc2)cc1 | < 5.00 | 5.18 | 5.22 | 5.07 | –
2 | COc1cc(/C=C/C(=O)NNC(=O)c2ccccc2)cc(OC)c1O | < 5.00 | < 5.00 | < 5.00 | < 5.00 | –
3 | COc1ccc(C(=O)NNC(=O)/C=C/c2cc(OC)c(O)c(OC)c2)cc1 | 5.03 | 5.13 | 5.14 | 5.02 | –
4 | COc1cc(/C=C/C(=O)NNC(=O)c2ccc(O)cc2)ccc1O | < 5.00 | 5.82 | 5.36 | < 5.00 | Activity [5]: Active; Activity [6]: Active; Activity [7]: tde; Activity [8]: Non-toxic; Activity [9]: Dose-dependent effect; Activity [10]: 12.3%; Activity [11]: 46.2%; Activity [12]: 8.9%; Activity [13]: 31.7%; Activity [14]: 4.9%; Activity [15]: 5.2%
5 | COc1cc(/C=C/C(=O)NNC(=O)c2ccc(O)cc2)cc(OC)c1O | < 5.00 | 5.06 | 5.03 | < 5.00 | –
6 | O=C(/C=C/c1ccc(O)c(O)c1)NNC(=O)c1ccccc1 | 5.05 | 5.17 | 5.32 | 5.09 | –
7 | CC[C@@]1(O)C(=O)OCc2c1cc1n(c2=O)Cc2cc3c(CN(C)C)c(O)ccc3nc2-1 [TOPOTECAN] | < 5.00 | 5.38 | 5.46 | < 5.00 | –
8 | COc1ccc(C(=O)NNC(=O)/C=C/c2ccc(O)c(OC)c2)cc1 | < 5.00 | 5.27 | 5.25 | < 5.00 | –
9 | O=C(/C=C/c1ccc(O)cc1)NNC(=O)c1ccccc1 | 5.01 | 5.13 | 5.13 | 5.03 | –
10 | COc1ccc(C(=O)NNC(=O)/C=C/c2ccc(O)c(O)c2)cc1 | 5.03 | 5.27 | 5.31 | 5.02 | –
11 | O=C(/C=C/c1ccc(O)c(O)c1)NNC(=O)c1ccc(O)cc1 | < 5.00 | 5.35 | 5.22 | 5.06 | –
12 | COc1cc(/C=C/C(=O)NNC(=O)c2ccccc2)ccc1O | 5.02 | 5.21 | 5.28 | 5.04 | –
13 | O=C(/C=C/c1ccc(O)cc1)NNC(=O)c1ccc(O)cc1 | 5.06 | 5.26 | 5.06 | < 5.00 | –
